Drawing on patent US12448394B2, “Heterocyclic pyrazole derivatives as type III receptor tyrosine kinase inhibitors” (DEVELOPMENT CENTER FOR BIOTECHNOLOGY, priority 2019, dated 2025), this text covers IC50 for 17 molecules.

One assay concerns the target T1, MET kinase (Homo sapiens, UniProt P08581).
T1 construct: purchased SignalChem
The experiment in a line: MET kinase assay (AlphaScreen, counter screen). The format is biochemical. To be noted: read-out: Ranking of IC50 values, MET. The gist of the method:
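Recombinant MET kinase (1 ng) phosphorylated biotinylated poly(Glu4:Tyr1) with […] ATP (so in the source) in MOPS pH 7.0 buffer with 10 mM MgCl2, 45 min at 30 °C, stopped with EDTA. Product read by AlphaScreen; IC50 from serial dilutions run in duplicate.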
For orientation: Bead proximity is the source of the signal in Alpha formats.

Assay [1] has as its system Molm-14 human acute myeloid leukemia cell with FLT3-ITD mutation. Put plainly: Molm-14 cell proliferation assay (CellTiter 96). To be noted: Homo sapiens; Molm-14 cells, 72 hours treatment, CellTiter96; read-out: anti-proliferation activity Molm-14 (FLT3-ITD), IC50 ranking. The format is cell-based. The gist of the method:
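Molm-14 (FLT3-ITD AML) cells in RPMI 1640 with 10% heat-inactivated FBS were seeded at 25000 cells/well, incubated overnight at 37° C, 5% CO2, then treated with increasing compound concentrations for 72 hours. Viability was read as absorbance at 490 nm after 2˜4 hours with CellTiter96 AQueous One reagent.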

A further assay addresses T2, FLT3-D835Y mutant kinase (Homo sapiens, UniProt P36888, D835Y).
T2 construct: purchased SignalChem
T2 sequence (P36888 27-993 D835Y): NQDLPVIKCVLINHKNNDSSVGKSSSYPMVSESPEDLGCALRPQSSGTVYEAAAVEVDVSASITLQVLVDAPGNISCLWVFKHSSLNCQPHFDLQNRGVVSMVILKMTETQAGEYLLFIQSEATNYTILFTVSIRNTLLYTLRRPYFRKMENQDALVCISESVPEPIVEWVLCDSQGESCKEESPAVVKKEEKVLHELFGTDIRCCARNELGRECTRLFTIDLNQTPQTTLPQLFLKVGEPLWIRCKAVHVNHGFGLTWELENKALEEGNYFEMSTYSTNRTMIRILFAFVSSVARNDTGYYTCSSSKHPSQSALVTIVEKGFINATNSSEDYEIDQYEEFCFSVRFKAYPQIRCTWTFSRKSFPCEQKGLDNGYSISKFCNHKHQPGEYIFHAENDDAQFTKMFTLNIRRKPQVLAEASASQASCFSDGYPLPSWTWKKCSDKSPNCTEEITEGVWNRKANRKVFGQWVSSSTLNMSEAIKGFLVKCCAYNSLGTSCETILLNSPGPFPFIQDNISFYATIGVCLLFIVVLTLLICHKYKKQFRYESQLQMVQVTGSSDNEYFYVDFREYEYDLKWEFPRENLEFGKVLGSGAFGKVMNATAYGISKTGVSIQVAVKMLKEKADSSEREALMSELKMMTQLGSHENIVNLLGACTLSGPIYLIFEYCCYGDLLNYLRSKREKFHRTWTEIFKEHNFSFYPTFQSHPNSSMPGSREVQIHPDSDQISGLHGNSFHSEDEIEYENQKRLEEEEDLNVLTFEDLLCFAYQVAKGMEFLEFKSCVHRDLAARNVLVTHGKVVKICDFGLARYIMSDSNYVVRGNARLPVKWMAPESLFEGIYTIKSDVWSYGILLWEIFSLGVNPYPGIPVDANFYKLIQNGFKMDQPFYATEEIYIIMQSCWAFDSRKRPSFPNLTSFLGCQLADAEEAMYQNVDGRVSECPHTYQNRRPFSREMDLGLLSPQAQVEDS
The experiment in a line: FLT3-D835Y mutant kinase assay (AlphaScreen). The settings on record: read-out: Ranking of IC50 values, FLT3-D835Y. In kind it is biochemical. The gist of the method: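 Recombinant FLT3-D835Y (1 ng) phosphorylated biotin-poly(Glu4:Tyr1) at 10 μM ATP, pH 7.0 MOPS buffer with 10 mM MgCl2, for 30 min at 30 °C, stopped with EDTA. Product was read by AlphaScreen. IC50 came from serial dilutions run in duplicate.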

SMILES strings stand for the structures.

T1 sequence (P08581 25-1390): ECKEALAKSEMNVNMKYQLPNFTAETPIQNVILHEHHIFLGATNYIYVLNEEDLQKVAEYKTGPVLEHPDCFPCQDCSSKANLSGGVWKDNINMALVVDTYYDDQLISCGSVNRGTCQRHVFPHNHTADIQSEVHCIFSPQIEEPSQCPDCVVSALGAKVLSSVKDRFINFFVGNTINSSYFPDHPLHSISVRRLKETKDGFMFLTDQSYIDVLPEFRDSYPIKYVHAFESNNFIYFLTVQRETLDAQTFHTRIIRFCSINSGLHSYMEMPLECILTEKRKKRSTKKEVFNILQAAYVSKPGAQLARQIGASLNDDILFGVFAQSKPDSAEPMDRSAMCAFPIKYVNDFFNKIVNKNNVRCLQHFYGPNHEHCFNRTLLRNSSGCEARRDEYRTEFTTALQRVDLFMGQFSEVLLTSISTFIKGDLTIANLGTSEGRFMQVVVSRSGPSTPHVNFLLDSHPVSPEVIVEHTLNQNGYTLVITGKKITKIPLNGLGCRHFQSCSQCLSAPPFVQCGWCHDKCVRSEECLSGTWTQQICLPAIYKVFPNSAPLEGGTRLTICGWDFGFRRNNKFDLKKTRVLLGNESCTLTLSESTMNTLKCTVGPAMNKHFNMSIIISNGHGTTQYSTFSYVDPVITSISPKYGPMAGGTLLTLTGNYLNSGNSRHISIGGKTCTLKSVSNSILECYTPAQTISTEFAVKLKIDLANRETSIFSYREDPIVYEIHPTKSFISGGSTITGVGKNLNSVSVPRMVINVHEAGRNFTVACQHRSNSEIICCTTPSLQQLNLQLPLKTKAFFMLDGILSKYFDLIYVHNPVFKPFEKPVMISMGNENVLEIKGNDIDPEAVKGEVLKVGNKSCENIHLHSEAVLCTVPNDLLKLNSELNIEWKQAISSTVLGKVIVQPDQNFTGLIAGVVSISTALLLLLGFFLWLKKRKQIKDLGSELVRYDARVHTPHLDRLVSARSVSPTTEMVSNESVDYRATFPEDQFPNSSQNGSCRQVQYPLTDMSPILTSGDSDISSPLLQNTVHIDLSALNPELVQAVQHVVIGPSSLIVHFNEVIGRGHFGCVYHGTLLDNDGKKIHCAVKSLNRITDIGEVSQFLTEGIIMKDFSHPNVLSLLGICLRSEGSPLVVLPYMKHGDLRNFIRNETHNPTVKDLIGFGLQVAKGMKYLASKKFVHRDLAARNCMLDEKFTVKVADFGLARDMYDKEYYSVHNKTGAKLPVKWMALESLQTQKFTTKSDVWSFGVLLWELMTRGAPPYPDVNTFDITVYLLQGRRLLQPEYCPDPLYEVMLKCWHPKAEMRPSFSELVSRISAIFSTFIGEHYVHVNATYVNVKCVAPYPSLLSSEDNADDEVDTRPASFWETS

Turning to `CN(c1ccc(-c2cc3c(s2)Cc2c(-c4ccc5cnn(C)c5c4)n[nH]c2-3)cc1)C1CCOCC1` [Compound 73, N-methyl-N-(4-(3-(1-methyl-1H-indazol-6-yl)-1,4-dihydrothieno [2′,3′:4,5]cyclopenta [1,2-c]pyrazol-6-yl)phenyl)tetrahydro-2H-pyran-4-amine], the IC50 on MET kinase was above 1000 nM; in assay [1], 300 to 1000 nM; on FLT3-D835Y mutant kinase, 1 to 10 nM.

Take `C[C@@H]1COCCN1Cc1ccc(-c2cc3c(s2)Cc2c(-c4ccc5cnn(C)c5c4)n[nH]c2-3)cc1` [Compound 74, (R)-3-methyl-4-(4-(3-(1-methyl-1H-indazol-6-yl)-1,4-dihydrothieno [2′,3′:4,5]cyclopenta [1,2-c]pyrazol-6-yl)benzyl)morpholine]: the IC50 at MET kinase is above 1000 nM; in assay [1], 30 to 100 nM; on FLT3-D835Y mutant kinase, below 1 nM.

Consider `C[C@H]1COCCN1Cc1ccc(-c2cc3c(s2)Cc2c(-c4ccc5cnn(C)c5c4)n[nH]c2-3)cc1` [Compound 75, (S)-3-methyl-4-(4-(3-(1-methyl-1H-indazol-6-yl)-1,4-dihydrothieno [2′,3′:4,5]cyclopenta [1,2-c]pyrazol-6-yl)benzyl)morpholine], for which the IC50 on MET kinase is above 1000 nM; in assay [1] it was 30 to 100 nM; on FLT3-D835Y mutant kinase, below 1 nM.

With `Cn1ncc2ccc(-c3n[nH]c4c3Cc3sc(-c5ccc(C=C6CCOCC6)cc5)cc3-4)cc21` [Compound 76, 3-(1-methyl-1H-indazol-6-yl)-6-(4-((tetrahydro-4H-pyran-4-ylidene)methyl)phenyl)-1,4-dihydrothieno[2′,3′:4,5] cyclopenta[1,2-c]pyrazole], the IC50 at MET kinase is above 1000 nM; in assay [1], 300 to 1000 nM; on FLT3-D835Y mutant kinase, 1 to 10 nM.

Consider `Cn1ncc2ccc(-c3n[nH]c4c3Cc3sc(-c5ccc(CC6CCOCC6)cc5)cc3-4)cc21` [Compound 77, 3-(1-methyl-1H-indazol-6-yl)-6-(4-((tetrahydro-2H-pyran-4-yl)methyl)phenyl)-1,4-dihydrothieno [2′,3′:4,5]cyclopenta [1,2-c]pyrazole], for which the IC50 at MET kinase was above 1000 nM; in assay [1], 100 to 300 nM; on FLT3-D835Y mutant kinase it was 1 to 10 nM.

In the case of `Cn1ncc2ccc(-c3n[nH]c4c3Cc3sc(N5CCOCC5)cc3-4)cc21` [Compound 78, 4-(3-(1-methyl-1H-indazol-6-yl)-1,4-dihydro-thieno[2′,3′:4,5]cyclopenta [1,2-c]pyrazol-6-yl) morpholine], the IC50 on MET kinase was above 1000 nM; in assay [1] it was below 30 nM; at FLT3-D835Y mutant kinase it was below 1 nM.

On to `Cn1ncc2ccc(-c3n[nH]c4c3Cc3sc(N5CCOCC5=O)cc3-4)cc21` [Compound 79, 4-(3-(1-methyl-1H-indazol-6-yl)-1,4-dihydro-thieno[2′,3′:4,5]cyclopenta [1,2-c]pyrazol-6-yl) morpholin-3-one], for which the results for the IC50 (at MET kinase; in assay [1]; on FLT3-D835Y mutant kinase) were above 1000 nM, below 30 nM and below 1 nM, respectively.

For the molecule `Cn1ncc2ccc(-c3n[nH]c4c3Cc3sc(-c5ccc(CN6CCC(N7CCOCC7)CC6)cc5)cc3-4)cc21` [Compound 80, 4-(1-(4-(3-(1-methyl-1H-indazol-6-yl)-1,4-dihydro-thieno[2′,3′:4,5]cyclopenta [1,2-c]pyrazol-6-yl)benzyl)piperidin-4-yl) morpholine], the IC50 at MET kinase is 300 to 1000 nM; in assay [1] it was below 30 nM; on FLT3-D835Y mutant kinase it was below 1 nM.

As to `Cn1ncc2ccc(-c3n[nH]c4c3Cc3sc(C5CCNCC5)cc3-4)cc21` [Compound 96, 3-(1-methyl-1H-indazol-6-yl)-6-(piperidin-4-yl)-1,4-dihydrothieno [2′,3′:4,5]cyclopenta [1,2-c]pyrazole], the IC50 was above 1000 nM on MET kinase, below 30 nM in assay [1] and below 1 nM at FLT3-D835Y mutant kinase.

As for `Cn1ncc2ccc(-c3n[nH]c4c3Cc3sc(-c5ccc(CN6CCCOCC6)cc5)cc3-4)cc21` [Compound 97, 4-(4-(3-(1-methyl-1H-indazol-6-yl)-1,4-dihydro-thieno[2′,3′:4,5]cyclopenta [1,2-c]pyrazol-6-yl)benzyl)-1,4-oxazepane], the IC50 at MET kinase is above 1000 nM; in assay [1] it was below 30 nM; at FLT3-D835Y mutant kinase it was below 1 nM.

As to `Cn1ncc2ccc(-c3n[nH]c4c3Cc3sc(C5CCN(C(=O)CN6CCOCC6)CC5)cc3-4)cc21` [Compound 98, 1-(4-(3-(1-methyl-1H-indazol-6-yl)-1,4-dihydro-thieno[2′,3′:4,5]cyclopenta [1,2-c]pyrazol-6-yl)piperidin-1-yl)-2-morpholinoethan-1-one], the IC50 at MET kinase was above 1000 nM; in assay [1], below 30 nM; on FLT3-D835Y mutant kinase it was below 1 nM.

In the case of `Cn1ncc2ccc(-c3n[nH]c4c3Cc3sc(-c5ccc(CN6CCCC6)cc5)cc3-4)cc21` [Compound 99, 3-(1-methyl-1H-indazol-6-yl)-6-(4-(pyrrolidin-1-ylmethyl)phenyl)-1,4-dihydrothieno[2′,3′:4,5] cyclopenta[1,2-c]pyrazole], the IC50 on MET kinase was above 1000 nM; in assay [1], below 30 nM; on FLT3-D835Y mutant kinase, below 1 nM.

Regarding `Cn1ncc2ccc(-c3n[nH]c4c3Cc3sc(-c5ccc(CN6CCCCC6)cc5)cc3-4)cc21` [Compound 100, 3-(1-methyl-1H-indazol-6-yl)-6-(4-(piperidin-1-ylmethyl)phenyl)-1,4-dihydrothieno[2′,3′:4,5] cyclopenta[1,2-c]pyrazole], the IC50 is 100 to 300 nM at MET kinase, below 30 nM in assay [1] and below 1 nM on FLT3-D835Y mutant kinase.

As to `Cn1ncc2ccc(-c3n[nH]c4c3Cc3sc(-c5ccc(CN6CC7(COC7)C6)cc5)cc3-4)cc21` [Compound 102, 6-(4-(3-(1-methyl-1H-indazol-6-yl)-1,4-dihydro-thieno[2′,3′:4,5]cyclopenta [1,2-c]pyrazol-6-yl)benzyl)-2-oxa-6-azaspiro [3.3]heptane], the IC50 on MET kinase is 300 to 1000 nM; in assay [1], below 30 nM; at FLT3-D835Y mutant kinase it was below 1 nM.

With `Cn1ncc2ccc(-c3n[nH]c4c3Cc3sc(-c5ccc(CN6CCC6)cc5)cc3-4)cc21` [Compound 103, 6-(4-(azetidin-1-ylmethyl)phenyl)-3-(1-methyl-1H-indazol-6-yl)-1,4-dihydro-thieno[2′,3′:4,5]cyclopenta [1,2-c]pyrazole], the IC50 was 300 to 1000 nM at MET kinase, 30 to 100 nM in assay [1] and below 1 nM on FLT3-D835Y mutant kinase.

With `Cn1ncc2ccc(-c3n[nH]c4c3Cc3sc(-c5ccc(CN6CC(F)(F)C6)cc5)cc3-4)cc21` [Compound 104, 6-(4-((3,3-difluoroazeti-din-1-yl)methyl)phenyl)-3-(1-methyl-1H-indazol-6-yl)-1,4-dihydrothieno [2′,3′:4,5]cyclopenta [1,2-c]pyrazole], the figures for the IC50 (at MET kinase; in assay [1]; on FLT3-D835Y mutant kinase) were above 1000 nM, 100 to 300 nM and 1 to 10 nM, respectively.

`COC1CN(Cc2ccc(-c3cc4c(s3)Cc3c(-c5ccc6cnn(C)c6c5)n[nH]c3-4)cc2)C1` [Compound 105, 6-(4-((3-methoxyazeti-din-1-yl)methyl)phenyl)-3-(1-methyl-1H-indazol-6-yl)-1,4-dihydrothieno [2′,3′:4,5]cyclopenta [1,2-c]pyrazole]: the IC50 was 300 to 1000 nM on MET kinase, below 30 nM in assay [1] and below 1 nM on FLT3-D835Y mutant kinase.
